Laboratory results taken from patent US20170007559A1, “COMPOSITIONS AND METHODS FOR PROTECTING COLONIC EPITHELIAL BARRIER FUNCTION” (The University of Tennessee Research Foundation, priority 2015, published 2017).

What was measured:
[1] = tested on: detergent-insoluble fractions of TJ and AJ proteins; assay: Immunoblot of TJ and AJ proteins in detergent-insoluble fraction of distal colonic mucosa after total body irradiation; format: in vivo, mouse; conditions: 20 mM NAC in liquid diet for 5 days prior to TBI 4 Gy, 2 hours post irradiation
Procedure: In the first study, adult female (12-14 week's age) mice were subjected to total body irradiation (4 Gy). At 2-24 hours post-irradiation (IR), the integrity of colonic epithelial TJs, AJs and actin cytoskeleton was examined. In a second study, mice were randomized to four groups: Sham (control), IR, NAC and NAC+IR, and fed a liquid diet with (NAC and NAC+IR) or without (Sham and IR) 20 mM NAC for 5 days prior to irradiation. IR and NAC+IR mice were subjected to total body irradiation (4 Gy), while Sham and NAC mice were sham-treated. At 2 hours post-irradiation, colon and ileum were collected and examined for oxidative stress and epithelial junctional integrity. At the end of experiment, gut permeability was measured as described below. […]
Actin-rich detergent-insoluble fraction was prepared as described previously (Elias, B. C.; Suzuki, T.; Seth, A.; Giorgianni, F.; Kale, G.; Shen, L.; Turner, J. R.; Naren, A.; Desiderio, D. M.; Rao, R. Phosphorylation of Tyr-398 and Tyr-402 in occludin prevents its interaction with ZO-1 and destabilizes its assembly at the tight junctions. J Biol Chem 284:1559-1569; 2009; Kale, G.; Naren, A. P.; Sheth, P.; Rao, R. K. Tyrosine phosphorylation of occludin attenuates its interactions with ZO-1, ZO-2, and ZO-3. Biochem Biophys Res Commun 302:324-329; 2003.). […] Protein content was measured by BCA method (Pierce Biotechnology, Rockford, Ill.). […]

[2] = tested on: colonic epithelial TJs, AJs and actin cytoskeleton; assay: Immunofluorescence of TJ and AJ proteins and F-actin in mouse intestine after total body irradiation (4 Gy); format: in vivo; conditions: 20 mM NAC in liquid diet for 5 days prior to TBI 4 Gy, 2 hours post irradiation
Procedure: (§1) In the first study, adult female (12-14 week's age) mice were subjected to total body irradiation (4 Gy). At 2-24 hours post-irradiation (IR), the integrity of colonic epithelial TJs, AJs and actin cytoskeleton was examined. In a second study, mice were randomized to four groups: Sham (control), IR, NAC and NAC+IR, and fed a liquid diet with (NAC and NAC+IR) or without (Sham and IR) 20 mM NAC for 5 days prior to irradiation. IR and NAC+IR mice were subjected to total body irradiation (4 Gy), while Sham and NAC mice were sham-treated. At 2 hours post-irradiation, colon and ileum were collected and examined for oxidative stress and epithelial junctional integrity. At the end of experiment, gut permeability was measured as described below. Colon and ileum segments were stored frozen for further analyses.
Cryo-sections of colon (10 μm thickness) and ileum (12 μm thickness) were fixed in acetone methanol mixture (1:1) at […] for 2 min and rehydrated in phosphate buffered saline (PBS). Sections were permeabilized with 0.5% Triton X-100 in PBS for 15 min and blocked in 4% non-fat milk in TBST (20 mM Tris, pH 7.2 and 150 mM NaCl). It was then incubated for one hour with primary antibodies (mouse monoclonal anti-occludin and rabbit polyclonal anti-ZO-1 antibodies or mouse monoclonal E-cadherin and rabbit polyclonal anti-β-catenin antibodies), followed by incubation for one hour with secondary antibodies (AlexaFluor-488-conjugated anti-mouse IgG and Cy3-conjugated anti-rabbit IgG antibodies from Molecular Probes, Eugene, Oreg.) containing Hoechst 33342. The fluorescence was examined by using a confocal microscope (Zeiss 710) and images from x-y sections (1 μm) were collected using Zen software. Images were stacked using the Image J software (NIH) and processed by Adobe Photoshop (Adobe Systems Inc., San Jose, Calif.).
Studies were performed to evaluate the effect of RP-1 on radiation-induced redistribution of TJ and AJ proteins in mouse colon in vivo. Mice were subjected to TBI (4 Gy); in some groups, animals received a one-time injection of RP-1 (0.1 mg/kg) 30 min prior to IRR. At 2 hours post-IRR, cryosections of colon were stained for TJ and AJ proteins, images collected by confocal microscopy and fluorescence measured by densitometric analysis.

Caco-2 cell monolayers = assay: Radiation-induced redistribution of TJ proteins in Caco-2 cell monolayers; format: cell-based; conditions: NAC 10 mM pretreatment for one hour, radiation 4 Gy
Procedure: Therefore, we evaluated the effect of radiation on barrier function and TJ proteins in Caco-2 and m-ICC12 cell monolayers in vitro. Barrier function was evaluated by measuring transepithelial electrical resistance (TER) and transepithelial flux of FITC-inulin in cell monolayers grown on transwell inserts. Cell monolayers were also fixed and stained for occludin and ZO-1 for confocal microscopy.
The effect of LPA was also tested in m-ICC12 cells at varying doses of radiation. LPA blocked IRR-induced redistribution of ZO-1 (FIG. 14C). […] These models can be used for further mechanistic studies.

colonic loops = assay: Inulin absorption from the lumen of isolated colonic loops of irradiated mice; format: in vivo, mouse; conditions: loops prepared 3 hours post irradiation from NAC-fed, incubated 75 min
Procedure: At 3 hours post irradiation, colonic loops were prepared and filled with 0.15 ml of 0.9% saline containing FITC-inulin (0.05 mg/ml) and incubated for 75 min in an incubator. Luminal contents were measured for fluorescence to evaluate inulin absorption from colonic lumen.

[3] = tested on: intestinal mucosal barrier function; assay: Gut permeability in vivo, vascular-to-luminal flux of FITC-inulin after total body irradiation; parameters: species or system mouse
Procedure: as §1, with “analyses. Mucosal barrier dysfunction was evaluated by measuring gut permeability to FITC-inulin (6 kDa). On the last day of experiment, mice were intravenously injected with FITC-inulin (50 mg/ml solution; 2 μl/g body weight) via tail vein. One hour after injection, blood samples were collected by cardiac puncture under isoflurane anesthesia for plasma preparation. Luminal contents from colon and ileum were flushed with 0.9% saline. Fluorescence in plasma and luminal flushing was measured using fluorescence plate reader. Fluorescence values in the luminal flushing were normalized to fluorescence values in corresponding plasma samples and calculated as percent of amount injected.” for “analyses.”

[4] = tested on: reduced and oxidized protein thiols; assay: Protein thiol assay in colon and ileum after total body irradiation; format: in vivo, mouse; conditions: TBI 4 Gy, 2 hours post irradiation
Procedure: as §1, with “analyses. Protein thiols in colonic sections were assessed as described before. Reduced protein thiols were evaluated by staining cryosections colon with BODIPY FL-N-(2-aminoethyl) maleimide (Flm) and confocal microscopy at excitation and emission wavelengths, 490 nm and 534 nm, respectively. For oxidized protein thiols, the reduced protein thiol was first alkylated with N-ethylmaleimide followed by reduction of oxidized protein thiols with tris (2-carboxyethyl) phosphine prior to staining with Flm. […] Fluorescence images collected and fluorescence quantitated by Image J software.” for “analyses.”

## CC(=O)N[C@@H](CS)C(=O)O [NAC, N-acetyl L-cysteine]
[1]
  radiation-induced loss of detergent-insoluble fractions of TJ and AJ proteins: blocked
[2]; colon and ileum
  radiation-induced redistribution of Cldn-3: blocked
  radiation-induced redistribution of E-cadherin and β-catenin from the intercellular junctions: absent
  radiation-induced redistribution of occludin and ZO-1 from the intercellular junctions: almost a complete attenuation
[2]; colon
  radiation-induced loss of F-actin (actin cytoskeleton), colon: almost complete
[2]; ileum
  radiation-induced loss of F-actin (actin cytoskeleton), ileum: only partially protected
Caco-2 cell monolayers
  radiation-induced loss of junctional occludin and ZO-1: significantly blocked
Colonic loops
  radiation-induced increase in inulin absorbed from the lumen of colonic loops: absent
[3]; NAC-fed, sham-treated mice (no irradiation)
  mucosal permeability in colon or ileum, NAC by itself: no significant influence
[3]; colon, 20 mM NAC in liquid diet for 5 days prior to TBI 4 Gy, in vivo flux
  radiation-induced increase in colonic mucosal permeability to FITC-inulin: effectively attenuated
[3]; ileum, NAC supplementation in diet prior to TBI 4 Gy, in vivo flux
  radiation-induced increase in inulin permeability in the ileum: blocked
[4]; NAC fed mice, confocal images
  radiation-induced decrease in stain for reduced protein thiols and increase in stain for oxidized protein thiols: absent
[4]; NAC feeding
  radiation-induced conversion of reduced protein thiols into oxidized protein thiols, densitometric analysis of fluorescence: attenuates
